The structures appear in SMILES notation. “And” between values parts separate entries of the source, which are not always exact repeats. Identical values can stand only once.

Type in all cases: in vivo, mouse
For experiment [1], the system named is APP/PS1 mice. Nature of the experiment: open field test (Supplementary Fig 7f-i). Also noted: open field test, sFig 7f (sheet untitled): unit not given here. On the procedure: (§1) Transgenic mouse lines over-expressing the hAPP695swe (APP) and presenilin-1M146V (PS1) mutations were originated from GlaxoSmithKline (Harlow, UK)[32] and maintained as described previously. We purchased 5×FAD mice from Jackson Labs (Stock number. 34840-JAX). Because APP/PS1 and 5xFAD mice show sex differences in disease progression, we used only male mice. To examine possible therapeutic effect of N-AS and aspirin in APP/PS1 mice, the N-AS (30 mg kg^−1, Sigma-Aldrich, 01912) was injected daily s.c. for 8 weeks to 7-months-old APP/PS1 mice until the age of 9 months, and aspirin (2 mg kg^−1, Sigma-Aldrich, A5376)[33] was administrated orally to 7-months-old APP/PS1 mice for 8 weeks. […] Block randomization method was used to allocate the animals to experimental groups. To eliminate the bias, we were blinded in experimental progress such as data collection and data analysis. Mice were housed at temperature of 22 °C and a 12 h day/12 h night cycle with free access to tap water and food pellets. All protocols were approved by the Kyungpook National University Institutional Animal Care and Use Committee. […] Freezing was analyzed for 5 min. […] Overall activity in the box was measured, and the amount of time and distance traveled in the center arena was noted. […] The total number of transitions, latency to first enter the light chamber, distance traveled, and time spent in each chamber were recorded.

For experiment [2], the system named is APP/PS1 mice. Nature of the experiment: fluorescent bead phagocytosis assay in live brain slices (Fig 5b). The conditions noted are these: APP/PS1 + N-AS, individual values. On the procedure:
Transgenic mouse lines over-expressing the hAPP695swe (APP) and presenilin-1M146V (PS1) mutations were originated from GlaxoSmithKline (Harlow, UK)[32] and maintained as described previously. We purchased 5×FAD mice from Jackson Labs (Stock number. 34840-JAX). Because APP/PS1 and 5xFAD mice show sex differences in disease progression, we used only male mice. To examine possible therapeutic effect of N-AS and aspirin in APP/PS1 mice, the N-AS (30 mg kg^−1, Sigma-Aldrich, 01912) was injected daily s.c. for 8 weeks to 7-months-old APP/PS1 mice until the age of 9 months, and aspirin (2 mg kg^−1, Sigma-Aldrich, A5376)[33] was administrated orally to 7-months-old APP/PS1 mice for 8 weeks. Also, to confirm possible therapeutic efficacy of N-AS in 5×FAD, the N-AS (30 mg kg^−1, Sigma-Aldrich, 01912) was injected daily s.c. for 4 weeks to 3-months-old 5×FAD mice until the age of 4 months. Block randomization method was used to allocate the animals to experimental groups. To eliminate the bias, we were blinded in experimental progress such as data collection and data analysis. […]
The phagocytic activity of adult microglia in the cortex of live brain slices was analyzed as following protocol. […] The sections were analyzed with a laser-scanning confocal microscope (FV3000; Olympus). MetaMorph software (Molecular Devices) was used to quantification.

Experiment [3] relates to APP/PS1 mice. Nature of the experiment: fear conditioning (Supplementary Fig 7e). The settings on record: N-AS vs vehicle APP/PS1. On the procedure:
as §1

In the case of `CCCCCCCCCCCCC/C=C/[C@@H](O)[C@H](CO)NC(C)=O` [N-AS, N-((2S,3R,E)-1,3-Dihydroxyoctadec-4-en-2-yl)acetamide], the “open field test, sFig 7f (sheet untitled)” value in experiment [1] (APP/PS1 + N-AS, sums to 600 with sFig 7g) is 520.5 and 509.5 and 517.5 and 503.5 and 522.5 and 508 and 406.5 and 460.5. Also, the “locomotion and spontaneous activity, open field test” value in experiment [1] (N-AS vs APP/PS1) was “improved locomotion and spontaneous activity”. The “number of microglial phagocytes normalized to the total number of microglia” value in experiment [2] is 0.002363 and 0.002382 and 0.001493 and 0.001786 and 0.001435. The “memory formation, fear conditioning” value in experiment [3] is “largely protected from this defect”.

The values are drawn from article PMC7217877, “N-AS-triggered SPMs are direct regulators of microglia in a model of Alzheimer’s disease” (Nature Communications, 2020).
